Several values for one entry are separate records, joined by “and”; a condition that tells them apart may be missing. Identical values can stand only once. Results filed as inconclusive are left out. Activity calls are given as the source filed them.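 Rule for the calls: active = compounds whose fitted half-maximal concentration stays within ten times the top tested dose in every test run; inconclusive = runs disagree, or a flat partial drop or poor fit; inactive = every run inactive, including flat curves and signal rises.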

As usually defined, the AC50 is the concentration giving half of the maximal activity seen.

In the assay the target is Serine/threonine-protein kinase 33 (Homo sapiens) (UniProt Q9BYT3). Put plainly: inhibition of purified STK33 phosphorylating MBP – biochemical, ADP-Glo luminescence, dry powder, set 2, dose response (AID 588480). The settings on record: purified STK33, MBP phosphorylation; for activity change, negative = inhibition: at 10 µM (top of the series). (In general: ADP-Glo turns the ADP formed in a reaction into a luminescent signal.)
Serine/threonine-protein kinase 33 (Homo sapiens), sequence (Q9BYT3 whole entry, looked up): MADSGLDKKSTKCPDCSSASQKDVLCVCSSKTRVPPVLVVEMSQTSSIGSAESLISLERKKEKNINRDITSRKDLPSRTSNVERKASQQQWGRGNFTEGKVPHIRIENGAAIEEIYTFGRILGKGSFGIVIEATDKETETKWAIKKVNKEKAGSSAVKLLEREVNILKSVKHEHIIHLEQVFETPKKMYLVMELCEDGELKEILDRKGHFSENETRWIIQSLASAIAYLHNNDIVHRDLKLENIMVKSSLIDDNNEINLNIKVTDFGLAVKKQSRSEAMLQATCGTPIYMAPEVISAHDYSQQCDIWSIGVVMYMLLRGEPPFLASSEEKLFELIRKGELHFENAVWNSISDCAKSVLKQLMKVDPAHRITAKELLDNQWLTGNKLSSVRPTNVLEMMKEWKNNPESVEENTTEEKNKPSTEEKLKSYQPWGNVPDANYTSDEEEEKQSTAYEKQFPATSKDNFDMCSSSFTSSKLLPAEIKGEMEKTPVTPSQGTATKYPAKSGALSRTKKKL

As for `O=C(Nc1ccccc1-c1nc2ccccc2[nH]c1=O)c1ccc(F)cc1`, the AC50 was 152 nM.
Take `O=C1NC(=NCc2ccccc2)S/C1=C/c1ccc(O)cc1`: the AC50 is 245 nM.
With `COc1ccccc1N=C1NC(=O)/C(=C/c2ccccn2)S1`, the “activity change, negative = inhibition” value was “inactive”.
For `Nc1ccccc1-c1nc2ccccc2[nH]c1=O`, the “activity change, negative = inhibition” value was “inactive”.
As to `COc1ccccc1N=C1NC(=O)/C(=C/c2ccc3c(c2)OCCO3)S1`, the half-maximal activity concentration (AC50) was 1280 nM.
`COc1ccccc1N=C1NC(=O)/C(=C/c2ccc3c(c2)OCO3)S1`: the half-maximal activity concentration (AC50) was 5410 nM.
As to `COc1ccccc1N=C1NC(=O)/C(=C/c2cc(C)on2)S1`, the “activity change, negative = inhibition” value is “inactive”.
`COc1ccc(C(=O)Nc2ccccc2-c2nc3ccccc3[nH]c2=O)cc1`: the AC50 was 977 nM.
In the case of `O=C(Nc1ccccc1-c1nc2ccccc2[nH]c1=O)C1CCCCC1`, the “activity change, negative = inhibition” value was “inactive”.
Take `COc1ccccc1N=C1NC(=O)/C(=C/c2ccc(OC(F)(F)F)cc2)S1`: the “activity change, negative = inhibition” value is “inactive”.
For `O=C(Nc1ccccc1-c1nc2ccccc2[nH]c1=O)c1cc2ccccc2s1`, the AC50 is 8510 nM.
`COc1ccccc1N=C1NC(=O)CS1`: the “activity change, negative = inhibition” value is “inactive”.
Take `COc1ccc(/C=C2\SC(=Nc3ccccc3OC)NC2=O)cc1`: the concentration at half-maximal activity (AC50) is 2250 nM.
On to `COc1ccccc1Nc1nc(O)c(/C=C2/C=c3ccccc3=N2)s1`, for which the “activity change, negative = inhibition” value was “inactive”.
In the case of `O=C(Nc1ccccc1-c1nc2ccccc2[nH]c1=O)c1cccc(Cl)c1`, the concentration at half-maximal activity (AC50) is 709 nM.
For `COc1ccccc1N=C1NC(=O)/C(=C/C(C)C)S1`, the “activity change, negative = inhibition” value was “inactive”.
Regarding `O=C(Nc1ccccc1-c1nc2ccccc2[nH]c1=O)c1ccccn1`, the concentration at half-maximal activity (AC50) was 76 nM.
`O=C(Nc1ccccc1-c1nc2ccccc2[nH]c1=O)c1cccnc1`: the AC50 is 582 nM.
The same measure, in the same setting: for `O=C(Nc1ccccc1-c1nc2ccccc2[nH]c1=O)c1cccc(F)c1` the value was 2430 nM.
On to `O=c1[nH]c2ccccc2nc1-c1ccccc1NCc1cccs1`, for which the “activity change, negative = inhibition” value is “inactive”.
As for `COc1ccccc1N=C1NC(=O)/C(=C/c2cccn2C)S1`, the “activity change, negative = inhibition” value was “inactive”.
Turning to `COc1ccccc1N=C1NC(=O)/C(=C/c2ccc(O)cc2)S1`, the AC50 was 911 nM.
For the compound `COc1ccccc1N=C1NC(=O)/C(=C/c2cccc(F)c2)S1`, the “activity change, negative = inhibition” value was “inactive”.
In the case of `O=C(Nc1ccccc1-c1nc2ccccc2[nH]c1=O)c1cccs1`, the concentration at half-maximal activity (AC50) is 285 nM and 308 nM.
In the case of `COc1ccccc1N=C1NC(=O)/C(=C/C2CCCCC2)S1`, the “activity change, negative = inhibition” value was “inactive”.
As to `O=C(Nc1ccccc1-c1nc2ccccc2[nH]c1=O)c1ccncc1`, the half-maximal activity concentration (AC50) was 7690 nM.
Consider `COc1cc(/C=C2\SC(=Nc3ccccc3OC)NC2=O)ccc1O`, for which the AC50 was 250 nM and 321 nM.
Consider `COc1ccccc1N=C1NC(=O)/C(=C/c2cccc(Cl)c2)S1`, for which the “activity change, negative = inhibition” value is “inactive”.
Still for that read-out and setting: for `COc1ccccc1/C=C1\SC(=Nc2ccccc2OC)NC1=O` the value was “inactive”.
For `COc1cc(/C=C2\SC(=Nc3ccccc3OC)NC2=O)ccc1F`, the half-maximal activity concentration (AC50) was 9910 nM.
Consider `COc1cc(/C=C2\SC(N)=NC2=O)ccc1O`, for which the AC50 is 466 nM.
